Results on 23 compounds are retold here after US20100197591A1, “4-AMINO-7,8-DIHYDROPYRIDO[4,3-d]PYRIMIDIN-5(6H)-ONE DERIVATIVES” (pfizer Inc, priority 2009, published 2010).

The first test concerns the target T1, Human full-length diacylglycerol:acylCoA acyltransferase 1 (DGAT-1) (Homo sapiens, UniProt O75907).
T1 construct: Human full-length diacylglycerol:acylCoA acyltransferase 1 (DGAT-1) was expressed in Sf9 insect cells; made in house; host or cells: Sf9 insect cells (baculovirus); crude membrane/microsome fraction
T1 sequence (O75907 1-488): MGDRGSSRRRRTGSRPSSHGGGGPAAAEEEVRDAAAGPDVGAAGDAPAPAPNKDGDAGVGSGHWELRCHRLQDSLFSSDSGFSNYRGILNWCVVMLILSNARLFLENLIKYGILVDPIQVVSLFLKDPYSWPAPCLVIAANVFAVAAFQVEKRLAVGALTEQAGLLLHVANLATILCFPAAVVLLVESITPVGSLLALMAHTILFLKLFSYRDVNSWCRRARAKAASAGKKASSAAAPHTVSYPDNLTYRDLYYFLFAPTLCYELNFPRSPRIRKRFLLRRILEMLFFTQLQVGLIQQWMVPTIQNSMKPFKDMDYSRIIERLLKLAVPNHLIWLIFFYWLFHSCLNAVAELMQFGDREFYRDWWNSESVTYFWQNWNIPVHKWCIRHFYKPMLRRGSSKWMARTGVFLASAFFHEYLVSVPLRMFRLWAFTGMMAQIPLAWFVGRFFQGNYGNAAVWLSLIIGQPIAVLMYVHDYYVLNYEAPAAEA
The test can be described thus: DGAT-1 Reduced Microsome Multidose Assay, G7829E Human IC50. It is filed as biochemical. The conditions noted are these: crude membrane fraction of Sf9 cells expressing human DGAT-1; [14C]decanoylCoA; terminated with 5 μl of 1.4% phosphoric acid instead of HCl; average where tested more than once. On the procedure: (§1) Human full-length diacylglycerol:acylCoA acyltransferase 1 (DGAT-1) was expressed in Sf9 insect cells which are then lysed and a crude membrane fraction (105,000×g pellet) was prepared. The DGAT-1 gene is a human DGAT-1 gene described in J Biol Chem 273:26765 (1998) and U.S. Pat. No. 6,100,077.
(§2) In vitro inhibition of DGAT-1 was measured using a modification, further described below, of the assay methodology described in U.S. Pat. No. 6,994,956 B2.
(§3) The cells were cultured as follows. Sf9 cells (20 L) were infected with 4 mL of DGAT-1 Baculovirus Infected Insect Cells (BIIC) for 72 hours in a Wave Bioreactor System 20/50P (Wave Biotec/GE Healthcare).
(§4) Crude DGAT-1 microsomes were prepared as follows. Cell pellets were washed once with ice-cold Dulbecco's phosphate-buffered saline. Cells were collected in tabletop centrifuge (Beckman GS-6KR), 15 minutes, 2000×g, 4° C. Twenty (20) mL of ice-cold Microsome Buffer (MB) was added per 5 g of cell pellet. The suspension was passed through a microfluidizer 3 times (18K psi). The lysate was transferred to centrifuge tubes and centrifuged for 20 minutes at 5000×g (Beckman-Coulter, Inc. Allegra® 64R High-Speed Refrigerated Benchtop Centrifuge, F0650 rotor) at 4° C. The supernatant was transferred to ultracentrifuge tubes and centrifuged at 125,000×g for 1 hour in a Beckman Ti-45 rotor, 4° C. The supernatant fluid was discarded. The pellet was resuspended in 70 mL of MB by sonication. The microsome concentration was determined using Bio-Rad Protein DC Protein Assay. The microsomes were filter sterilized with a 0.22 μm filter. The samples were portioned, flash frozen and stored at −80° C.
(§5) The Microsome Buffer, used for microsome preparation, was prepared by conventional means and contained 125 mM sucrose, 3 mM imidazole, 0.2 μg/mL aprotinin, 0.2 μg/mL leupeptin and 5 mM dithiothreitol (Cleland's reagent), DGAT-1 activity was measured in 384-well format in a total assay volume of 25 μl that contained, Hepes buffer (50 mM, pH 7.5), MgCl2 (10 mM), bovine serum albumin (0.6 mg/ml), [^14C]decanoylCoA (20 μM, 58 Ci/mol) and membranes (25 μg/ml) into which 1,2 dioleoyl-sn-glycerol (75 μM) in acetone has already been incorporated. Inhibitors in DMSO were pre-incubated with membranes before initiating the DGAT-1 reaction by the addition of decanoylCoA. […] The DMSO concentration was 2.5%. The inhibitors were present at a range of eight concentrations to generate an apparent IC50 for each compound. The eight inhibitor concentration employed ranged from 10 μM to 3 nM (from high to low concentration). Specifically, the eight concentrations used were 10 μM, 3 μM, 1 μM, 300 nM, 100 nM, 30 nM, 10 nM and 3 nM.
(§6) Reaction mixtures were neutralized by the addition of 15 μl of tris(hydroxy-methyl)aminomethane (1M, pH 8.0) and then mixed by trituration with 37.5 μl of Microscint™-E (Perkin Elmer). Plates contents were allowed to partition for 15 to 30 min before ^14C was measured in a scintillation spectrometer (Wallac Microbeta Trilux 1450-030 liquid scintillation counter 12 detector in the top-count DPM mode). Percent inhibition of test compounds was computed as […].
(§7) Four separate assays were performed using 4 different methods of analysis. The method of analysis of Assay 1 was the same as Assay 4 (described above) except microsomes were utilized at 25 μg/mL instead of 5 μg/mL. The method of analysis of Assay 2 was the same as Assay 4 (described above) except eleven (11) concentrations of inhibitor were employed instead of eight (8). The method of analysis of Assay 3 was the same as Assay 2 except the compounds were serially diluted in a different laboratory.
(§8) Where this DGAT-1 inhibition assay was performed on a compound more than once, an average is provided for that compound.
In turn, `COc1nc(N)c2c(n1)CCN(c1ccc(C(=O)C(C)(C)C)cc1)C2=O` [Example 1F, 4-amino-6-[4-(2,2-dimethylpropanoyl)phenyl]-2-methoxy-7,8-dihydropyrido[4,3-d]pyrimidin-5(6H)-one] yielded an IC50 of 192 nM.

The target in the next test is T1, Human full-length diacylglycerol:acylCoA acyltransferase 1 (DGAT-1). The test can be described thus: DGAT-1 Reduced Microsome Multidose Assay, G7329F Human IC50. The conditions noted are these: crude membrane fraction of Sf9 cells expressing human DGAT-1; [14C]decanoylCoA; apparent IC50, average where tested more than once. It is filed as biochemical. As for the experimental part:
as §1, §2, §3, §4, §5, §6, §7, §8
With `COc1nc(N)c2c(n1)CCN(c1ccc(C(C)(C)C)cc1F)C2=O` [Example 6I, 4-amino-6-(4-tert-butyl-2-fluorophenyl)-2-methoxy-7,8-dihydropyrido[4,3-d]pyrimidin-5(6H)-one], the IC50 amounted to 4.9 nM.

With `COc1nc(N)c2c(n1)CCN(c1ccc3c(c1)N(C)C(=O)C3(C)C)C2=O` [Example 6J, 4-amino-2-methoxy-6-(1,3,3-trimethyl-2-oxo-2,3-dihydro-1H-indol-6-yl)-7,8-dihydropyrido[4,3-d]pyrimidin-5(6H)-one], the IC50 amounted to 256 nM.

Regarding `COc1nc(N)c2c(n1)CCN(c1ccc(C(C)(C)C(F)(F)F)cc1)C2=O` [Example 6K, 4-amino-2-methoxy-6-[4-(2,2,2-trifluoro-1,1-dimethylethyl)phenyl]-7,8-dihydropyrido[4,3-d]pyrimidin-5(6H)-one], the IC50 came to 32.7 nM.

For `COc1nc(N)c2c(n1)CCN(c1ccc([C@H]3CC[C@H](Cc4nc(C)no4)CC3)c(F)c1)C2=O` [Example 7E, 4-amino-6-(3-fluoro-4-{trans-4-[(3-methyl-1,2,4-oxadiazol-5-yl)methyl]cyclohexyl}phenyl)-2-methoxy-7,8-dihydropyrido[4,3-d]pyrimidin-5(6H)-one], the IC50 was determined as 38.7 nM.

Turning to `COc1nc(N)c2c(n1)CCN(c1ccc(C(C)(C)NC(C)=O)cc1)C2=O` [Example 8A, N-{1-[4-(4-amino-2-methoxy-5-oxo-7,8-dihydropyrido[4,3-d]pyrimidin-6(5H)-yl)phenyl]-1-methylethyl}acetamide], the 50% inhibitory concentration (IC50) turned out to be 1570 nM.

As for `COc1nc(N)c2c(n1)CCN(c1ccc(Cl)c(Cl)c1)C2=O` [Example 9A, 4-amino-6-(3,4-dichlorophenyl)-2-methoxy-7,8-dihydropyrido[4,3-d]pyrimidin-5(6H)-one], the IC50 was 68.9 nM.

Take `COc1nc(N)c2c(n1)CCN(c1ccc3c(c1)OCCO3)C2=O` [Example 9B, 4-amino-6-(2,3-dihydro-1,4-benzodioxin-6-yl)-2-methoxy-7,8-dihydropyrido[4,3-d]pyrimidin-5(6H)-one]: the IC50 is 104 nM.

For `COc1nc(N)c2c(n1)CCN(c1ccccc1)C2=O` [Example 9C, 4-amino-2-methoxy-6-phenyl-7,8-dihydropyrido[4,3-d]pyrimidin-5(6H)-one], the IC50 is 594 nM.

On to `COc1nc(N)c2c(n1)CCN(c1ccc(Cl)c(F)c1)C2=O` [Example 9D, 4-amino-6-(4-chloro-3-fluorophenyl)-2-methoxy-7,8-dihydropyrido[4,3-d]pyrimidin-5(6H)-one], for which the IC50 came to 101 nM.

For the compound `COc1nc(N)c2c(n1)CCN(c1ccc(Cl)cc1)C2=O` [Example 9F, 4-amino-6-(4-chlorophenyl)-2-methoxy-7,8-dihydropyrido[4,3-d]pyrimidin-5(6H)-one], the IC50 turned out to be 747 nM.

For the compound `COc1nc(N)c2c(n1)CCN(c1ccc(OC(C)C)cc1)C2=O` [Example 9G, 4-amino-6-(4-isopropoxyphenyl)-2-methoxy-7,8-dihydropyrido[4,3-d]pyrimidin-5(6H)-one], the IC50 was determined as 102 nM.

With `COc1nc(N)c2c(n1)CCN(c1ccc(OCC3CC3)cc1)C2=O` [Example 9H, 4-amino-6-[4-(cyclopropylmethoxy)phenyl]-2-methoxy-7,8-dihydropyrido[4,3-d]pyrimidin-5(6H)-one], the IC50 is 115 nM.

In the case of `COc1nc(N)c2c(n1)CCN(c1ccc(OCC(C)C)cc1)C2=O` [Example 9I, 4-amino-6-(4-isobutoxyphenyl)-2-methoxy-7,8-dihydropyrido[4,3-d]pyrimidin-5(6H)-one], the IC50 worked out at 84.1 nM.

`COc1nc(N)c2c(n1)CCN(c1ccc3nc[nH]c3c1)C2=O` [Example 9J, 4-amino-6-(1H-benzimidazol-6-yl)-2-methoxy-7,8-dihydropyrido[4,3-d]pyrimidin-5(6H)-one]: the IC50 is 1400 nM.

`COc1nc(N)c2c(n1)CCN(c1ccc(C3(C)CCCO3)cc1)C2=O` (centres unmarked) [Example 9K, 4-amino-2-methoxy-6-[4-(2-methyltetrahydrofuran-2-yl)phenyl]-7,8-dihydropyrido[4,3-d]pyrimidin-5(6H)-one]: the IC50 came out at 63.2 nM.

With `COc1nc(N)c2c(n1)CCN(c1ccc(CCC(F)(F)F)cc1)C2=O` [Example 9L, 4-amino-2-methoxy-6-[4-(3,3,3-trifluoropropyl)phenyl]-7,8-dihydropyrido[4,3-d]pyrimidin-5(6H)-one], the IC50 was found to be 77.4 nM.

On to `COc1nc(N)c2c(n1)CCN(c1ccc(SC(C)(C)C)cc1)C2=O` [Example 9N, 4-amino-6-[4-(tert-butylthio)phenyl]-2-methoxy-7,8-dihydropyrido[4,3-d]pyrimidin-5(6H)-one], for which the IC50 came out at 23.9 nM.

As for `COc1nc(N)c2c(n1)CCN(c1ccc([S+]([O-])C(C)(C)C)cc1)C2=O` (centres unmarked) [Example 9O, 4-amino-6-[4-(tert-butylsulfinyl)phenyl]-2-methoxy-7,8-dihydropyrido[4,3-d]pyrimidin-5(6H)-one], the IC50 came to 648 nM.

As to `COc1nc(N)c2c(n1)CCN(c1ccc(S(=O)(=O)C(C)(C)C)cc1)C2=O` [Example 9P, 4-amino-6-[4-(tert-butylsulfonyl)phenyl]-2-methoxy-7,8-dihydropyrido[4,3-d]pyrimidin-5(6H)-one], the IC50 worked out at 784 nM.

As for `COc1nc(N)c2c(n1)CCN(c1ccc(C(O)C(C)(C)C)cc1)C2=O` (centres unmarked) [Example 10A, 4-amino-6-[4-(1-hydroxy-2,2-dimethylpropyl)phenyl]-2-methoxy-7,8-dihydropyrido[4,3-d]pyrimidin-5(6H)-one], the IC50 worked out at 58.8 nM.

With `COc1nc(N)c2c(n1)CCN(c1ccc(C(OC)C(C)(C)C)cc1)C2=O` (centres unmarked) [Example 10D, 4-amino-2-methoxy-6-[4-(1-methoxy-2,2-dimethylpropyl)phenyl]-7,8-dihydropyrido[4,3-d]pyrimidin-5(6H)-one], the IC50 amounted to 27.9 nM.

Regarding `CC(C)(C)c1ccc(N2CCc3ncnc(N)c3C2=O)cc1` [Example 11A, 4-amino-6-(4-tert-butylphenyl)-7,8-dihydropyrido[4,3-d]pyrimidin-5(6H)-one], the IC50 worked out at 117 nM.
